Like-named read-outs stand apart in the source and are kept apart here.
How the values were obtained:
Format in all cases: biochemical
human recombinant COX-2 [1] = target: T1, human recombinant COX-2 (Homo sapiens, UniProt P35354); assay: COX-2 oxygenation of 2-AG, oxygen electrode; details: for COX-2 activity (% of control): substrate 2-AG 10 µM, initial activity 10-30 s, n = 3
T1 construct: purchased Cayman Chemical Co. 60122
T1 sequence (P35354 18-604): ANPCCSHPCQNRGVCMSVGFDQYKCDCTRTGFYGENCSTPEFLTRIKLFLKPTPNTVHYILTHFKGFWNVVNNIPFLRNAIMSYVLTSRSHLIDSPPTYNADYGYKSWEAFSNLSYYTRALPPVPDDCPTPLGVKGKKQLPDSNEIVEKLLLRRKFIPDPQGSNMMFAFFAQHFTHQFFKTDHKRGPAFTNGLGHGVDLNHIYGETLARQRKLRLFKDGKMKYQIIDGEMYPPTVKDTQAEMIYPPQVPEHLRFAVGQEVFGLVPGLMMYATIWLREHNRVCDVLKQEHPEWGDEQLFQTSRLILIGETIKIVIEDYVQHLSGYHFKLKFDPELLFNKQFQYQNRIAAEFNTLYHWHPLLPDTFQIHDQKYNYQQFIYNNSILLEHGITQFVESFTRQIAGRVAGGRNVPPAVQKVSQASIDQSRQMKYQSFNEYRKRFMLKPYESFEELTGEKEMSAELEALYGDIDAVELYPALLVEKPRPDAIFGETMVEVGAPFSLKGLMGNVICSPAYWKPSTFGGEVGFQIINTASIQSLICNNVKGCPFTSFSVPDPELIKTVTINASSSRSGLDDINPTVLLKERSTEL
Method: (§1) The assay was performed according to Meade et al. with minor modifications using an oxygen electrode chamber with integral stirring (Oxygraph System, Hansatech Instruments, King’s Lynn, U.K.). The electrode was calibrated to ambient temperature and air pressure. Samples were prepared in 0.1 M Tris-HCl buffer pH 7.4 containing 1 µM haematin, 2 mM phenol, 5 mM EDTA, 10 µM substrate (AA or 2-AG) (final assay volume was 2 ml). After addition of test substance dissolved in DMSO (final assay concentration 1%) a baseline was established for 5 min before initiation of reaction by addition of 200 units COX-1 or COX-2. Change in oxygen consumption was monitored for approximately 5 min.
(§2) FAAH inhibition was calculated using log(inhibitor) vs. response with variable slope (four parameters) algorithm in the GraphPad Prism computer program (GraphPad Software Inc., San Diego, CA. USA). […] The two curves were compared by Akaike’s informative criteria and the best fit was chosen. Initial COX activities were calculated as the change in oxygen tension between 10 and 30 seconds after addition of enzyme.

rat brain FAAH = target: T2, rat brain FAAH (Rattus norvegicus, UniProt P97612); assay: FAAH hydrolysis of [3H]AEA in rat brain homogenates; details: 0.5 µM AEA
T2 construct: FAAH activity was quantified by measuring hydrolysis of tritium labelled AEA in rat brain homogenates; from tissue; host or cells: rat brain (minus cerebella), Wistar or Sprague-Dawley, washed membrane pellets
T2 sequence (P97612 1-579): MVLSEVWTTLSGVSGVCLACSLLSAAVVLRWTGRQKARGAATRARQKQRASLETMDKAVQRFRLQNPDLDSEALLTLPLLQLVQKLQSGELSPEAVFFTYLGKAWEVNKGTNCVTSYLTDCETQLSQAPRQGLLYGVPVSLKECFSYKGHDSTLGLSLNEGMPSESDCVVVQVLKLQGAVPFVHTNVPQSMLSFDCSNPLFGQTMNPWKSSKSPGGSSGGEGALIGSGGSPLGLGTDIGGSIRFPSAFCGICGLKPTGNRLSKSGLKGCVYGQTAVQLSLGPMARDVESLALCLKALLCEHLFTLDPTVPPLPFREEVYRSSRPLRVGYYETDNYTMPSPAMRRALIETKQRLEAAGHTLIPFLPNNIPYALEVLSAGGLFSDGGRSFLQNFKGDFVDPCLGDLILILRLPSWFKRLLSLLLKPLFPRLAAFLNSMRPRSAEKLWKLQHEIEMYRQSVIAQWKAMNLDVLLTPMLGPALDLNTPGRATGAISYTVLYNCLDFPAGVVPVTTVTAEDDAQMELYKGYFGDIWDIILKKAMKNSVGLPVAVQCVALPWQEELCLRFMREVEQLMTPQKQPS
Method: Brains (minus cerebella) from adult Wistar or Sprague-Dawley stored at −80°C were thawed, weighed and homogenized in cold buffer (20 mM HEPES, 1 mM MgCl2 pH 7.0). Homogenates were centrifuged at 35,000 g at 4°C for 20 min and the pellet was resuspended in homogenization buffer (repeated twice) before being incubated at 37°C for 15 min to degrade any endogenous substrate that might interfere with the FAAH assay. Following centrifugation, the pellets were resuspended in cold buffer (50 mM Tris-HCl, 1 mM EDTA, 3 mM MgCl2, pH 7.4). The protein concentration of each homogenates was determined according to the Bradford assay after which the samples were frozen in aliquots at −80°C until used for FAAH assay. Ethical permission for the animal experiments was obtained from the local animal research ethical committee (Umeå Ethical Committee for Animal Research, Umeå, Sweden).
The assay was performed according to Boldrup et al.. Homogenates (1 µg protein per assay) diluted in 10 mM Tris-HCl, 1 mM EDTA, pH 7.4 or pH 5.1 were mixed with test substance dissolved in DMSO (total concentration in assay 5%) at an ambient temperature of 4°C. Reactions were initiated by addition of AEA-[^3H] (assay concentration 0.5 µM) in 10 mM Tris-HCl, 1 mM EDTA, pH 7.4 containing 10 mg ml^−1 fatty acid-free bovine serum and incubation at 37°C which was allowed to proceed for 10 min. […] Blank samples contained buffer instead of homogenate and DMSO (5%). The assay volume of each sample was 200 µl. The pH values given in the text were determined by measurement at 37°C of scaled-up mixtures of homogenization and assay buffers. The reaction was terminated by addition of 400 µl activated charcoal (80 µl activated charcoal +320 µl 0.5 M HCl) and placement of samples on ice. Samples were kept in room temperature for 45–60 min before being centrifuged at 2500 rpm for 10 min. Aliquots (200 µl) of the supernatant was analyzed for tritium content by liquid scintillation with quench correction.
as §2

human recombinant COX-2 [2] = target: T1, human recombinant COX-2; assay: COX-2 oxygenation of arachidonic acid, oxygen electrode; details: for COX-2 activity (% of control): substrate AA 10 µM, initial activity 10-30 s, n = 3
Method: as §1, §2

[3] = pH 6.0, read-out: IC50, inhibition of [3H]AEA hydrolysis (converted)
[4] = pH 6.0, read-out: pI50, inhibition of [3H]AEA hydrolysis (converted)
[5] = pH 7.3, read-out: IC50, inhibition of [3H]AEA hydrolysis (converted)
[6] = pH 7.3, read-out: pI50, inhibition of [3H]AEA hydrolysis (converted)

Compound	COX-2 activity (% of control) (human recombinant COX-2 [1]; 100 µM NSAID)	COX-2 activity (% of control) (human recombinant COX-2 [1]; 300 µM NSAID)	IC50 (rat brain FAAH; [3])	IC50 (rat brain FAAH; [4])	inhibition at 1000 µM (rat brain FAAH; read-out: % inhibition of [3H]AEA hydrolysis @ 1000 µM, pH 7.3, 1000 µM compound)	COX-2 activity (% of control) (human recombinant COX-2 [2]; 100 µM NSAID)	COX-2 activity (% of control) (human recombinant COX-2 [2]; 300 µM NSAID)	inhibition of COX-2-catalysed oxygenation of 2-AG at longer incubation times (human recombinant COX-2 [1]; lower potency than the parent compound, initial inhibition (10-30 s) only modestly affected)	IC50 (rat brain FAAH; [5])	IC50 (rat brain FAAH; [6])	COX-2 activity (% of control) (human recombinant COX-2 [1]; 30 µM NSAID)	inhibition of cyclooxygenation of 2-AG (human recombinant COX-2 [1]; 30 µM compound)	inhibition of cyclooxygenation of 2-AG (human recombinant COX-2 [1]; 100 µM compound)	inhibition of cyclooxygenation of 2-AG (human recombinant COX-2 [1]; 300 µM compound)	inhibition of COX-2-catalysed oxygenation of arachidonic acid (result in words) (human recombinant COX-2 [2])	COX-2 activity (% of control) (human recombinant COX-2 [2]; 30 µM NSAID)
CC(C(=O)O)c1ccc(CC(C)(C)O)cc1 (stereo not drawn) [2′-OH-Ibuprofen, 2-[4-(2-hydroxy-2-methylpropyl)phenyl]propionic acid]	125±24 % of control	115±21 % of control	380 µM	380 µM	15 ± 7%	98±17 % of control	83±12 % of control	–	–	–	–	–	–	–	–	–
CC(CO)Cc1ccc(C(C)C(=O)O)cc1 (stereo not drawn) [3′-OH-Ibuprofen, 2-[4-(3-hydroxy-2-methylpropyl)phenyl]propionic acid]	73±14 % of control	91±2 % of control	200 µM	200 µM	–	103±21 % of control	84±10 % of control	retained the ability of ibuprofen to inhibit	990 µM	977 µM	–	–	–	–	–	–
CC(C(=O)O)c1ccc(-c2ccc(O)cc2)c(F)c1 (stereo not drawn) [4′-OH-Flurbiprofen]	24±4 % of control	−6±9 % of control	84 µM	85.1 µM	–	106±16 % of control	106±9 % of control	–	310 µM	316 µM	39±11 % of control	partially	partially	completely	failed to inhibit	88±16 % of control

— PMC4111603 (PLoS ONE, 2014)
